Assay results: PMC7579906, “Discovery of a dual inhibitor of NQO1 and GSTP1 for treating glioblastoma” (Journal of Hematology & Oncology, 2020)

Legend:
U87MG/EGFRvIII cells = test: Cell proliferation (MTT) assay, U87MG/EGFRvIII; assay type: cell-based, human; details: Homo sapiens, U-87 MG; inhibition of cell proliferation/viability; MNPC treated 72 h
Description: (§1) The human glioblastoma cell line U87MG was stably transfected with vector control, pLHCX-EGFRvIII, pGFP-NQO1 and pRS-GSTP1, which were supplemented with various antibiotics. For EGFRvIII, 150 μg/mL of hygromycin was used; for pGFP-NQO1 and pRS-GSTP1, 0.7 μg/mL of puromycin was employed. The cells were supplemented with 10% fetal bovine serum (Hyclone, USA), penicillin (100 U/ml) and streptomycin (100 U/ml) (ABAM Life Technologies, USA) in a humidified incubator with 5% CO2 at 37 °C.
(§2) In vitro assessment was implemented for cell proliferation using the 3-(4, 5- dimethylthiazol- 2-yl)-2,5-diphenyltetrazolium bromide (MTT) assay. After different treatments with specific time periods, 10 μL of MTT (5 mg/mL in PBS, Sigma, USA) was added to each well and the plates were incubated for 3 h at 37 °C. The resulting formazan product was dissolved with DMSO. The absorbance at a wavelength of 490 nm was recorded using a microplate reader (BioTek Instruments Inc., USA).

U87MG cells = test: Cell proliferation (MTT) assay, parental U87MG; assay type: cell-based; details: Homo sapiens, U-87 MG, inhibition of cell proliferation/viability
Description: as §1, §2

Row | Structure (SMILES) | IC50 (U87MG/EGFRvIII cells) | IC50 (U87MG cells)
1 | Cc1ccc(C)c(-c2csc(NC(=O)c3ccc(-c4ccccc4)cc3)n2)c1 [Compound 21] | 1.67 µM | 16.6 µM
2 | CCc1cc(C(=O)Nc2nc(-c3ccc(C)c(C)c3)c(C)s2)cs1 [Compound 23] | 2.22 µM | 29.1 µM
3 | O=C(Nc1ncc([N+](=O)[O-])s1)c1ccccc1O [TIZ, tizoxanide, reference compound] | 22.4 µM | 82.9 µM
4 | Cc1ccc(C(=O)Nc2nc(-c3ccccc3)c(C)s2)cc1 [Compound 22] | 2.42 µM | 11.2 µM

More lines, in order of falling IC50 (U87MG/EGFRvIII cells), values ahead:

Row | IC50 (U87MG/EGFRvIII cells) | Structure (SMILES) | IC50 (U87MG cells)
5 | 19.4 µM | CC(=O)Oc1ccccc1C(=O)Nc1ncc([N+](=O)[O-])s1 [NTZ, nitazoxanide, reference compound] | 66.7 µM
6 | 1.34 µM | Cc1ccc(-c2csc(NC(=O)c3cccc4ccccc34)n2)c(C)c1 [Compound 24] | 24.5 µM
